From patent US20230104936A1, “TRPML MODULATORS” (Casma Therapeutics, Inc., priority 2019, published 2023) come the findings set out here.

Where only a bound is given, the exact number is not on record here.

The subject of the assay is TFEB. Put plainly: TFEB nuclear translocation assay, HeLa wt cells. The assay is classed as cell-based. The conditions noted are these: Homo sapiens, HeLa, 2 h, 2 hrs compound treatment, Table 1 does not say HeLa wt or TRPML1 KO. Put shortly:
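AC50 derived from the ratio of nuclear to perinuclear ring (−5 μm) anti-TFEB immunofluorescence, imaged at ×20 over four fields per well. HeLa wt or TRPML1 KO cells were exposed to compounds for 2 hrs at 37° C, then PFA-fixed and counterstained with Hoechst.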
By AC50 is commonly meant the concentration at which the activity in the assay is half-maximal. The low end stands for activity at low concentration, the high end for activity only at high concentration. Take `C[C@@H]1CN(CC2CCN(c3c(C#N)cccc3NS(=O)(=O)c3ccc(S(=O)(=O)N(C)C)cc3)CC2)C[C@H](C)O1` [Compound A-878, N4-[3-cyano-2-(4-{[(2R,6S)-2,6-dimethylmorpholin-4-yl]methyl}piperidin-1-yl)phenyl]-N1,N1-dimethylbenzene-1,4-disulfonamide]: the AC50 is ≤ 2 µM. With `CC(c1cccnc1N1CCC(CN2C[C@@H](C)O[C@@H](C)C2)CC1)S(=O)(=O)c1ccc(S(=O)(=O)N(C)C)cc1` (stereo partly drawn) [Compound A-879, 4-{1-[2-(4-{[(2R,6S)-2,6-dimethylmorpholin-4-yl]methyl}piperidin-1-yl)pyridin-3-yl]ethanesulfonyl}-N,N-dimethylbenzene-1-sulfonamide] the figure was ≤ 2 µM.

For the compound `CC1(C)Cc2cc(S(=O)(=O)Nc3cccc(F)c3N3CCC(CN4C5CCC4COC5)CC3)ccc2O1` [Compound A-880, N-{3-fluoro-2-[4-({3-oxa-8-azabicyclo[3.2.1]octan-8-yl}methyl)piperidin-1-yl]phenyl}-2,2-dimethyl-2,3-dihydro-1-benzofuran-5-sulfonamide], the AC50 is ≤ 2 µM. With `Cc1ccc(S(=O)(=O)Nc2cccc(F)c2N2CCC(CN3C4CCC3COC4)CC2)cc1` [Compound A-881, N-{3-fluoro-2-[4-({3-oxa-8-azabicyclo[3.2.1]octan-8-yl}methyl)piperidin-1-yl]phenyl}-4-methylbenzene-1-sulfonamide] the figure was ≤ 2 µM. As to `O=S(=O)(Nc1cccc(F)c1N1CCC(CN2C3CCC2COC3)CC1)c1ccc2c(c1)CCC2` [Compound A-882, N-{3-fluoro-2-[4-({3-oxa-8-azabicyclo[3.2.1]octan-8-yl}methyl)piperidin-1-yl]phenyl}-2,3-dihydro-1H-indene-5-sulfonamide], the AC50 is ≤ 2 µM. As for `CN(C)S(=O)(=O)c1ccc(S(=O)(=O)Nc2cccc(F)c2N2CCC(CN3CC4C(C3)C4(F)F)CC2)cc1` (stereo not drawn) [Compound A-883, N4-{2-[4-({6,6-difluoro-3-azabicyclo[3.1.0]hexan-3-yl}methyl)piperidin-1-yl]-3-fluorophenyl}-N1,N1-dimethylbenzene-1,4-disulfonamide], the AC50 is ≤ 2 µM. With `CC(c1cccc(F)c1N1CCC(CN2C3CCC2COC3)CC1)S(=O)(=O)c1ccc2c(c1)CC(C)(C)O2` (stereo not drawn) [Compound A-886, 8-{[1-(2-{1-[(2,2-dimethyl-2,3-dihydro-1-benzofuran-5-yl)sulfonyl]ethyl}-6-fluorophenyl)piperidin-4-yl]methyl}-3-oxa-8-azabicyclo[3.2.1]octane] the figure was ≤ 2 µM; with `Cc1cc(Cl)c(N2CCOCC2)c(NS(=O)(=O)c2ccc3c(c2)CCC3)c1` [Compound A-887, N-[3-chloro-5-methyl-2-(morpholin-4-yl)phenyl]-2,3-dihydro-1H-indene-5-sulfonamide], ≤ 2 µM. As for `Cc1cc(Cl)c(N2CCOCC2)c(NS(=O)(=O)c2ccc(S(=O)(=O)N(C)C)cc2)c1` [Compound A-888, N4-[3-chloro-5-methyl-2-(morpholin-4-yl)phenyl]-N1,N1-dimethylbenzene-1,4-disulfonamide], the AC50 lay within 2.01 to 8 µM. Take `Cc1ccc(S(=O)(=O)Nc2cccc(F)c2N2CCC(CN3C4COCC3C4)CC2)cc1` [Compound A-889, N-{3-fluoro-2-[4-({3-oxa-6-azabicyclo[3.1.1]heptan-6-yl}methyl)piperidin-1-yl]phenyl}-4-methylbenzene-1-sulfonamide]: the AC50 lay in the range of 2.01 to 8 µM. In the case of `O=S(=O)(Nc1cccc(F)c1N1CCC(CN2C3COCC2C3)CC1)c1ccc(C(F)(F)C2CC2)cc1` [Compound A-898, 4-(cyclopropyldifluoromethyl)-N-{3-fluoro-2-[4-({3-oxa-6-azabicyclo[3.1.1]heptan-6-yl}methyl)piperidin-1-yl]phenyl}benzene-1-sulfonamide], the AC50 is ≥ 10 µM. Turning to `CN(C)S(=O)(=O)c1ccc(S(=O)(=O)Nc2cccc(F)c2N2CCC(C)(N)CC2)cc1` [Compound A-899, N4-[2-(4-amino-4-methylpiperidin-1-yl)-3-fluorophenyl]-N1,N1-dimethylbenzene-1,4-disulfonamide], the AC50 is ≥ 10 µM. `C[C@@H]1COC[C@H](C)N1CC1CN(c2c(F)cccc2NS(=O)(=O)c2ccc(S(=O)(=O)N(C)C)cc2)C1` [Compound A-900, N4-[2-(3-{[(3R,5S)-3,5-dimethylmorpholin-4-yl]methyl}azetidin-1-yl)-3-fluorophenyl]-N1,N1-dimethylbenzene-1,4-disulfonamide]: the AC50 was ≥ 10 µM. Take `C#Cc1cccc(NS(=O)(=O)c2ccc(S(=O)(=O)N(C)C)cc2)c1N1CCCCC1` [Compound A-901, N4-[3-ethynyl-2-(piperidin-1-yl)phenyl]-N1,N1-dimethylbenzene-1,4-disulfonamide]: the AC50 is ≤ 2 µM. The compound `CC(c1cccc(F)c1N1CCC(CN2C3CCC2COC3)CC1)S(=O)(=O)c1ccc(S(C)(=O)=O)cc1` (stereo not drawn) [Compound A-904, 8-[(1-{2-fluoro-6-[1-(4-methanesulfonylbenzenesulfonyl)ethyl]phenyl}piperidin-4-yl)methyl]-3-oxa-8-azabicyclo[3.2.1]octane] had an AC50 of 2.01 to 8 µM. With `Cc1ccc(S(=O)(=O)C(C)c2cccc(F)c2N2CCC(CN3C4CCC3COC4)CC2)cc1` (stereo not drawn) [Compound A-905, 8-[(1-{2-fluoro-6-[1-(4-methylbenzenesulfonyl)ethyl]phenyl}piperidin-4-yl)methyl]-3-oxa-8-azabicyclo[3.2.1]octane], the AC50 was ≤ 2 µM. For the compound `CC(c1cccc(F)c1N1CCC(CN2C3CCC2COC3)CC1)S(=O)(=O)c1ccc(C(F)F)cc1` (stereo not drawn) [Compound A-906, 8-{[1-(2-{1-[4-(difluoromethyl)benzenesulfonyl]ethyl}-6-fluorophenyl)piperidin-4-yl]methyl}-3-oxa-8-azabicyclo[3.2.1]octane], the AC50 was ≤ 2 µM. With `CC(c1cccc(F)c1N1CCC(CN2C3CCC2COC3)CC1)S(=O)(=O)c1ccc2c(c1)CCC2` (stereo not drawn) [Compound A-908, 8-[(1-{2-[1-(2,3-dihydro-1H-indene-5-sulfonyl)ethyl]-6-fluorophenyl}piperidin-4-yl)methyl]-3-oxa-8-azabicyclo[3.2.1]octane], the AC50 is 2.01 to 8 µM. Regarding `CN(C)S(=O)(=O)c1ccc(S(=O)(=O)Nc2cccc(F)c2N2CCC(N3CCC34CCCOC4)CC2)cc1` (stereo not drawn) [Compound A-917, N4-[3-fluoro-2-(4-{6-oxa-1-azaspiro[3.5]nonan-1-yl}piperidin-1-yl)phenyl]-N1,N1-dimethylbenzene-1,4-disulfonamide], the AC50 lay in the range of 2.01 to 8 µM. `C[C@@H]1CN(CC2CCCN(c3c(F)cccc3NS(=O)(=O)c3ccc(S(=O)(=O)N(C)C)cc3)CC2)C[C@H](C)O1` (stereo partly drawn) [Compound A-918, N4-[2-(4-{[(2R,6S)-2,6-dimethylmorpholin-4-yl]methyl}azepan-1-yl)-3-fluorophenyl]-N1,N1-dimethylbenzene-1,4-disulfonamide]: the AC50 was ≤ 2 µM.

As for `O=S(=O)(Nc1cccc(F)c1N1CCC(CN2C3CCC2COC3)CC1)c1ccc(C(F)(F)C2CC2)cc1` [Compound A-919, 4-(cyclopropyldifluoromethyl)-N-{3-fluoro-2-[4-({3-oxa-8-azabicyclo[3.2.1]octan-8-yl}methyl)piperidin-1-yl]phenyl}benzene-1-sulfonamide], the AC50 is ≤ 2 µM. With `CC(c1cccc(F)c1N1CCCCC1)S(=O)(=O)c1ccc2c(c1)CCS2(=O)=O` (stereo not drawn) [Compound A-920, 5-{1-[3-fluoro-2-(piperidin-1-yl)phenyl]ethanesulfonyl}-2,3-dihydro-1λ^6-benzothiophene-1,1-dione] the figure was ≥ 10 µM; with `CN(C)S(=O)(=O)c1ccc(S(=O)(=O)Nc2cccc(C#CC(F)F)c2N2CCCCC2)cc1` [Compound A-921, N4-[3-(3,3-difluoroprop-1-yn-1-yl)-2-(piperidin-1-yl)phenyl]-N1,N1-dimethylbenzene-1,4-disulfonamide], ≤ 2 µM; with `CC(C)S(=N)(=O)c1ccc(S(=O)(=O)[C@H](C)c2cccc(F)c2N2CCCCC2)cc1` (stereo partly drawn) [Compound A-922, (4-(((R)-1-(3-fluoro-2-(piperidin-1-yl)phenyl)ethyl)sulfonyl)phenyl)(imino)(isopropyl)-λ^6-sulfanone], ≥ 10 µM. With `Cc1cc(NS(=O)(=O)c2ccc(S(=O)(=O)N(C)C)cc2)n(C2CCCCC2)c(=O)c1` [Compound A-934, N4-(1-cyclohexyl-4-methyl-6-oxo-1,6-dihydropyridin-2-yl)-N1,N1-dimethylbenzene-1,4-disulfonamide] the figure was ≥ 10 µM; with `CC(c1cccc(F)c1N1CCCCC1)S(=O)(=O)c1ccc(S(=O)(=O)N(C)C)nn1` (stereo not drawn) [Compound A-941, 6-{1-[3-fluoro-2-(piperidin-1-yl)phenyl]ethanesulfonyl}-N,N-dimethylpyridazine-3-sulfonamide], 2.01 to 8 µM; with `Cc1cnc(N2CCC(CN3CCC(F)(F)CC3)CC2)c(NS(=O)(=O)c2ccc(S(=O)(=O)N(C)C)cc2)c1` [Compound A-952, N4-(2-{4-[(4,4-difluoropiperidin-1-yl)methyl]piperidin-1-yl}-5-methylpyridin-3-yl)-N1,N1-dimethylbenzene-1,4-disulfonamide], ≤ 2 µM.

For the compound `CN=S(=O)(c1ccc(S(=O)(=O)Nc2cccc(F)c2N2CCC(CN3C[C@@H](C)O[C@@H](C)C3)CC2)cc1)N(C)C` (stereo partly drawn) [Compound A-956, 4-{[2-(4-{[(2R,6S)-2,6-dimethylmorpholin-4-yl]methyl}piperidin-1-yl)-3-fluorophenyl]sulfamoyl}-N,N,N-trimethylbenzene-1-sulfonoimidamide], the AC50 was ≤ 2 µM. Regarding `CC(c1cccc(F)c1N1CCOCC1)S(=O)(=O)c1ccc2c(c1)CCS2(=O)=O` (stereo not drawn) [Compound A-957, 5-{1-[3-fluoro-2-(morpholin-4-yl)phenyl]ethanesulfonyl}-2,3-dihydro-1λ^6-benzothiophene-1,1-dione], the AC50 was ≥ 10 µM. To `CC(c1cc(Cl)cnc1N1CCC(CN2CCC(F)(F)CC2)CC1)S(=O)(=O)c1ccc(S(=O)(=O)N(C)C)cc1` (stereo not drawn) [Compound A-958, 4-[1-(5-chloro-2-{4-[(4,4-difluoropiperidin-1-yl)methyl]piperidin-1-yl}pyridin-3-yl)ethanesulfonyl]-N,N-dimethylbenzene-1-sulfonamide] belongs ≤ 2 µM.
